Data set [1] concerns HIV-1 replication in H9 cells. The experiment in a line: HIV-1 replication inhibition in acutely infected H9 lymphocytes (p24 antigen ELISA). In kind it is cell-based, HIV-1 (IIIB strain). As to conditions: for IC50: Human immunodeficiency virus 1, read-out: IC50 (μM)^b. As to the method:
(§1) HIV inhibition assay. The HIV inhibition was measured as described herein. Briefly, H9 cells, a T cell line, (3.5×10^6 cells/ml) were incubated in the presence or absence of HIV-1 (IIIB strain, 0.01-0.1 TCID50 /cell) for 1 hour at 37° C. Cells were washed thoroughly and resuspended at a final concentration of 2×10^5 cells/ml in the presence or absence of compound. After incubation for 3-4 days at 37° C., the cell density of uninfected cultures was determined by cell count to assess toxicity of the drug. An aliquot of each cell-free supernatant was assayed by p24 antigen ELISA to quantitate the amount of HIV-1 present in the infected cultures. Test compounds were considered to be active at a particular concentration if p24 antigen levels were less than 70% of infected, untreated controls and were nontoxic to uninfected H9 cells.
(§2) HIV Growth Inhibition Assay: The T cell line, H9, and the promonocytic cell line, U937, were maintained separately in continuous culture with complete medium (RPMI 1640 and […] fetal calf serum (FCS) at 5% CO2 and 37° C. Cell lines were used in experiments only when in log phase of growth; whereas, uninfected peripheral blood mononuclear cells (PBMCs) were first stimulated with PHA (1 μg/ml) for 3 days. All cell targets were incubated with HIV-1 (IIIB isolate, TCID50 10 ^4 IU/mi, at a multiplicity of infection of 0.1-0.01 IU/cell) for 1 hour at 37° C. and 5% CO2. The cell lines and PBMCs were washed thoroughly to remove unabsorbed virions and resuspended at 4×10^5 cells/ml in complete medium or complete medium with 10% v/v interleukin […] IL-2, respectively. Aliquots ( ml) were placed in wells of 24-well culture plates containing an equal volume of test compound (diluted in the appropriate culture medium). After incubation for 4 days at 37° C., cell density of uninfected cultures was determined by counting cells in a Coulter counter to assess toxicity of the test compound. A p24 antigen ELISA assay was used to determine the level of virus released in the medium of the HIV-infected cultures. The p24 antigen assay uses a HIV-1 anti-p24 specific monoclonal antibody as the capture antibody coated-on 96-well plates. Following a sample incubation period, rabbit serum containing antibodies for HIV-1 p24 is used to tag any p24 "captured" onto the microtiter well surface. Peroxidase conjugated goat anti-rabbit serum is then used to tag HIV-1 p24 specific rabbit antibodies which have complexed with captured p24. […] The cut-off for the p24 ELISA assay is 12. pg/ml. P24 in the culture medium was quantitated against a standard curve containing known amounts of p24. The effective (EC50) and inhibitory (IC50) concentrations (for anti-HIV activity and cytotoxicity, respectively) were determined graphically. Both the EC50 and IC50 values were calculated by plotting drug concentration versus percent inhibition, and then identifying a 50% inhibition value from the graph.
On the technique in general: In an ELISA, binding on a coated surface is turned into a signal by an enzyme label.

The subject of the next data set is uninfected H9 cells. The experiment in a line: Toxicity to uninfected H9 cells (cell growth). In kind it is cell-based. The note with it: Homo sapiens. On the procedure:
as §1, §2

Data set [2] relates to chronically HIV-1 infected ACH-2 cells. The experiment in a line: Virus expression from chronically HIV-1 infected T cell line ACH-2 (p24 antigen ELISA). In kind it is cell-based. The note with it: ACH-2 cells; 4320 min. As to the method: Effects of suksdorfin analogs on Chronically HIV-1 infected cells. The experimental design is as follows: The phorbol ester, PMA (10^-8 M) and various concentrations of suksdorfin were either added or not added to both the chronically HIV-1 infected T cell line (ACH-2) and to the chronically HIV-1 infected monocytic cell line (U1). Cell-free supernatant was collected 72 hours post culture for p24 antigen ELISA.
Results (Table 11) from adding compound 16 to the chronically HIV-infected T cell line, ACH-2, according to methods in above examples. ACH-2 are a chronically HIV-1 infected T cell line. It was derived from A3.01 cells which is a subclone of the CEM cell line. The data below indicates the following points:
Chronically HIV-1 infected cell lines. HIV-1 chronically infected T cell line, ACH-2^12, and HIV-1 chronically infected promonocytic cell line, U1 13, were continuously maintained in RPMI 1640 with 10% fetal calf serum (FCS). For experiments, the cell lines were only used in the […] of growth. Cells (0.5×10^6 cells/well) and either various concentrations of suksdorfin or medium alone were added to 24-well plates in the presence or absence of PMA (10^-8 M). After 72 hours at 37° C. and 5% CO2, an aliquot of the cell-free supernatants were collected and analyzed for p24 antigen by ELISA (see below for details of p24 antigen ELISA).

Setting [3] is: Human immunodeficiency virus 1, H9, Table 3, H9 lymphocytes, read-out: EC50.
Where [4] appears, read: H9, Table 3, H9 lymphocytes, read-out: IC50.
[5] abbreviates: Human immunodeficiency virus 1, H9, acutely infected H9 cells, concentration which inhibits viral replication by 50%, Inactive = No suppression of HIV-1 replication in H9 cells, read-out: EC50.
The mark [6] stands for this setting: Table 14, concentration which inhibits viral replication by 50%, Inactive = No suppression of HIV-1 replication in H9 cells.
Where [7] appears, read: IC50 for cell growth inhibition divided by EC50 for HIV inhibition, H9.
[8] abbreviates: H9, Table 14, concentration which inhibits uninfected cell growth by 50%, read-out: IC50 (μM)^a.
Where [9] appears, read: H9, concentration which inhibits uninfected cell growth by 50%, read-out: IC50.
Setting [10] is: Human immunodeficiency virus 1, H9, Table 17, acutely infected H9 lymphocytes, read-out: EC50.
[11] abbreviates: H9, Table 17, uninfected H9 cell growth, read-out: IC50.
The mark [12] stands for this setting: acutely infected H9 cells, concentration which inhibits viral replication by 50%, Inactive = No suppression of HIV-1 replication in H9 cells.

Read-outs that look alike come from different tables or passages of the source. Where only a bound is given, the exact number is not on record here.

A word on the EC50: it is the concentration needed to bring the measured effect to its halfway point. As for `CC(=O)OC1Cc2c(ccc3ccc(=O)oc23)OC1(C)C` (racemic) [Compound 25], in data set [1] (setting [3]), the EC50 is > 69 µM.

With `CC(C)CC(=O)OC1Cc2c(ccc3ccc(=O)oc23)OC1(C)C` (racemic) [Compound 26], the EC50 in data set [1] (setting [3]) is > 12 µM.

As to `CC(=O)O[C@@H]1c2c(ccc3ccc(=O)oc23)OC(C)(C)[C@@H]1OC(C)=O` (relative stereo) [Compound 12], the EC50 in data set [1] (setting [3]) was > 289 µM.

Turning to `CC(C)CC(=O)O[C@@H]1c2c(ccc3ccc(=O)oc23)OC(C)(C)[C@@H]1OC(=O)CC(C)C` (relative stereo) [Compound 13], the EC50 in data set [1] (Human immunodeficiency virus 1, H9, Table 3, H9 lymphocytes) is > 232 µM.

On to `CC(=O)O[C@@H]1[C@@H](OC(=O)c2cccc(Cl)c2)c2c(ccc3ccc(=O)oc23)OC1(C)C` (relative stereo) [Compound 27], for which the EC50 in data set [1] (setting [3]) is > 45 µM.

For orientation: IC50 means the midpoint of a concentration-inhibition curve. On to `CC(C)CC(=O)O[C@@H]1[C@@H](OC(=O)c2cccc(Cl)c2)c2c(ccc3ccc(=O)oc23)OC1(C)C` (relative stereo) [Compound 28], for which the EC50 in data set [1] (setting [3]) stood at 8.3 µM. Moreover, in data set [1] (Table 3, H9 lymphocytes), the “Therapeutic Index” value amounted to 1.2. In addition, the IC50 in the data set with uninfected H9 cells (setting [4]) came out at 10 µM.

For the compound `CO[C@@H]1[C@@H](OC(=O)c2cccc(Cl)c2)c2c(ccc3ccc(=O)oc23)OC1(C)C` (relative stereo) [Compound 29], the EC50 in data set [1] (setting [3]) was found to be 241 µM. Besides, in data set [1] (Table 3, H9 lymphocytes), the “Therapeutic Index” value is on record as > 0.2. Besides, the IC50 in the data set on uninfected H9 cells (setting [4]) is > 48 µM.

With `CC1(C)Oc2ccc3ccc(=O)oc3c2[C@H](OC(=O)c2cccc(Cl)c2)[C@H]1OCc1ccccc1` (relative stereo) [Compound 30], in data set [1] (setting [3]), the EC50 amounted to 6.1 µM.

In the case of `CCC(C)C(=O)OC1C(O)c2c(ccc3ccc(=O)oc23)OC1(C)C` (centres unmarked) [8 and 9], in data set [1] (setting [3]), the EC50 was > 57.8 µM.

Consider `CCC(C)C(=O)OC1c2c(ccc3ccc(=O)oc23)OC(C)(C)C1O` (centres unmarked) [10 and 11], for which the EC50 in data set [1] (setting [3]) was > 57.8 µM.

As to `CCC(C)C(=O)OC1c2c(ccc3ccc(=O)oc23)OC(C)(C)C1OC(=O)C(C)CC` (centres unmarked) [14 and 15], the EC50 in data set [1] (setting [3]) came out at 7 µM.

Consider `COc1c2ccoc2cc2oc(=O)ccc12` [Bergapten, bergapten, reference compound], for which the EC50 in data set [1] (setting [5]) is 30.1 µM. The IC50 was 30.1 µM in data set [1] (setting [6]), > 92.6 µM with uninfected H9 cells (setting [8]) and > 92.6 µM with uninfected H9 cells (setting [9]). In addition, the “Therapeutic Index” value in data set [1] (setting [7]) and in data set [1] (Table 14) was > 3.1 in each case.

Regarding `C/C=C(/C)C(=O)OC(C)(C)[C@@H]1Cc2c(ccc3ccc(=O)oc23)O1` [Columbianadin, columbianadin, reference compound], in data set [1] (setting [5]), the EC50 stood at 4.6 µM. The results for the IC50 (in data set [1] (setting [6]); in the data set with uninfected H9 cells (setting [8]); in the data set with uninfected H9 cells (setting [9])) were 4.6 µM, > 6.1 µM and > 6.1 µM, respectively. Moreover, the “Therapeutic Index” value in data set [1] (setting [7]) and in data set [1] (Table 14) was > 1.3 each time.

For `CC1(C)Oc2ccc3ccc(=O)oc3c2[C@H](OC(=O)[C@@]23CC[C@@](C)(C(=O)O2)C3(C)C)[C@@H]1OC(=O)[C@@]12CC[C@@](C)(C(=O)O1)C2(C)C` [Compound 17, 3',4'-Di-O-(-)-Camphanoyl-(-)-cis-Khellactone], the EC50 in data set [1] (setting [3]) and in data set [1] (setting [10]) was 51 µM each time. Also, the “Therapeutic Index” value in data set [1] (setting [7]) is on record as > 1.3; in data set [1] (Table 3, H9 lymphocytes) it was > 33.3; in data set [1] (Table 17, H9) it was > 33.3. In addition, the “anti-HIV activity in H9 cells (in words)” value was “much less activity than that of compound 16” in data set [1] (acutely infected H9 cells) and “much less anti-HIV activity than 2” in data set [1] (acutely infected H9 cells, listed as 3). For the same compound, the IC50 with uninfected H9 cells (setting [4]) and in the data set with uninfected H9 cells (setting [11]) was 1700 µM in each case.

For the compound `CC1(C)Oc2ccc3ccc(=O)oc3c2[C@H](OC(=O)[C@@]23CC[C@@](C)(C(=O)O2)C3(C)C)[C@H]1OC(=O)[C@@]12CC[C@@](C)(C(=O)O1)C2(C)C` [Compound 44, 31'4'-Di-O-(-)-Camphanoyl-(-)-trans-Khellactone], the “Therapeutic Index” value in data set [1] (Table 3, H9 lymphocytes) is > 1; in data set [1] (Table 14), 1.3; in data set [1] (Table 17, H9) it was > 1. Moreover, the “anti-HIV activity in H9 cells (in words)” value in data set [1] (acutely infected H9 cells) is “much less activity than that of compound 16”; in data set [1] (acutely infected H9 cells, listed as 4) it was “much less anti-HIV activity than 2”.

As for `CC1(C)Oc2ccc3ccc(=O)oc3c2[C@@H](OC(=O)[C@@]23CC[C@@](C)(C(=O)O2)C3(C)C)[C@@H]1OC(=O)[C@@]12CC[C@@](C)(C(=O)O1)C2(C)C` [Compound 45, 3', 4'-Di-O-(-)-Camphanoyl-(+)-trans-Khellactone], the EC50 in data set [1] (setting [3]) and in data set [1] (setting [10]) was 32 µM in each case. In addition, the “Therapeutic Index” value in data set [1] (Table 3, H9 lymphocytes) is reported as > 1; in data set [1] (Table 17, H9) it was > 1. Besides, the “anti-HIV activity in H9 cells (in words)” value in data set [1] (acutely infected H9 cells) is “much less activity than that of compound 16”; in data set [1] (acutely infected H9 cells, listed as 5) it was “much less anti-HIV activity than 2”. Also, the IC50 in the data set on uninfected H9 cells (setting [4]) was < 32 µM; in the data set with uninfected H9 cells (setting [11]), > 32 µM.

Consider `COc1cc2cc(Oc3ccc4ccc(=O)oc4c3)c(=O)oc2cc1O` [Daphnoretin, daphnoretin, reference compound], for which the “IC50 (μM)^b” value in data set [1] (setting [6]) was “Inactive”. Further, the “anti-HIV activity in H9 cells (in words)” value in data set [1] (acutely infected H9 cells) is “no activity”. Moreover, the EC50 result in data set [1] (setting [12]) is given as “Inactive”.

For the compound `CC(C)(O)[C@H]1Cc2cc3ccc(=O)oc3cc2O1` [Nodakenetin, nodakenetin, reference compound], in data set [1] (setting [6]), the “IC50 (μM)^b” value is reported as “Inactive”. For the same compound, the EC50 result in data set [1] (setting [12]) is on record as “Inactive”.

On to `CC(C)(O[C@@H]1O[C@H](CO)[C@@H](O)[C@H](O)[C@H]1O)[C@H]1Cc2cc3ccc(=O)oc3cc2O1` [Nodakenin, nodakenin, reference compound], for which the “IC50 (μM)^b” value in data set [1] (setting [6]) is “Inactive”. Besides, in data set [1] (setting [12]), the EC50 result is “Inactive”.

Take `CCCCCCCCCCCCCC(=O)O[C@@H]1[C@@H](C)[C@@]2(O)[C@@H](C=C(CO)C[C@]3(O)C(=O)C(C)=C[C@@H]23)[C@@H]2C(C)(C)[C@]12OC(C)=O` [PMA, phorbol 12-myristate 13-acetate, reference compound]: the “induction of virus replication compared to medium alone” value in data set [2] amounted to 27 fold.

With acetylnodakenin [reference compound], the “IC50 (μM)^b” value in data set [1] (setting [6]) is “Inactive”. Further, the EC50 result in data set [1] (setting [12]) was “Inactive”.

The values above are taken from patent publication US6319929A, “Suksdorfin analogs, compositions thereof, and methods for making and using thereof” (priority 1998, dated 2001).
